Measurements published in US4728736A, “Carbocyclic analogs of purine ribofuranosides” (priority 1984, dated 1988).
Converted amounts (≈) assume the structure as drawn.

Columns and labels:
[1] = tested on: herpes simplex virus, type 1 (strain HF); assay: Antiviral activity (virus rating); […]; assay type: cell-based; details: H.Ep. 2 cells; for EC50: Human alphaherpesvirus 1, HEp-2, strain HF, read-out: MIC50, Herpes Simplex Type 1; for Virus Rating (VR), Herpes Simplex Type 1: VR 0.5-0.9 marginal to moderate, VR >= 1 definite activity
[2] = tested on: vaccinia virus (Lederle Chorioallantoic strain); assay: microbe, parasite or virus in culture; assay type: cell-based; details: for Virus Rating (VR), Vaccinia Virus: Lederle Chorioallantoic strain, H.Ep. 2 cells, VR 0.5-0.9 marginal to moderate, VR >= 1 definite activity; for EC50: Orthopoxvirus vaccinia, HEp-2, read-out: MIC50, Vaccinia Virus
[3] = tested on: herpes simplex virus, type 1 (strain 377); assay: Antiviral activity (virus rating); […]; assay type: cell-based; details: strain 377, Vero cells; for EC50: Human alphaherpesvirus 1, 50% inhibition of virus-induced cytopathogenic effects, read-out: MIC50, Herpes Simplex Type 1; for Virus Rating (VR), Herpes Simplex Type 1: VR 0.5-0.9 marginal to moderate, VR >= 1 definite activity
[4] = tested on: herpes simplex virus, type 1, and vaccinia virus; assay type: cell-based, type 1; vaccinia virus; details: cell culture
[5] = 50% inhibition of virus-induced cytopathogenic effects

SMILES | EC50 [1, 5] | Virus Rating (VR), Herpes Simplex Type 1 ([1]; strain HF) | Virus Rating (VR), Vaccinia Virus [2] | EC50 [2] | EC50 [3] | Virus Rating (VR), Herpes Simplex Type 1 [3] | MIC50, Herpes Simplex Type 1 ([1]; strain HF, 50% inhibition of virus-induced cytopathogenic effects) | antiviral activity (in words) [4] | inhibiting replication of vaccinia virus (in words) [2]
Nc1nc(Cl)c2ncn([C@@H]3C[C@H](CO)[C@@H](O)[C@H]3O)c2n1 (relative stereo) [Example 1, (1α,2α,3β,5β)-3-(2-Amino-6-chloro-9HH-purin-9-yl)-5-(hydroxymethyl)-1,2-cyclopentanediol] | 10 µg/mL (≈ 33.4 µM) | 1.7 | 1.2 | 20 µg/mL (≈ 66.7 µM) |  |  |  |  | 
Nc1nc(N)c2ncn([C@@H]3C[C@H](CO)[C@@H](O)[C@H]3O)c2n1 (relative stereo) [Example 2, (1α,2α,3β,5β)-3-(2,6-Diamino-9H-purin-9-yl)-5-(hydroxymethyl)-1,2-cyclopentanediol] | 0.32 µg/mL (≈ 1.14 µM) | 4.6 | 3.8 | 2.3 µg/mL (≈ 8.21 µM) | 197 µg/mL (≈ 703 µM) | 2.2 | 0.3 µg/mL (≈ 1.07 µM) | very high activity | highly active
CNc1nc(N)nc2c1ncn2[C@@H]1C[C@H](CO)[C@@H](O)[C@H]1O (relative stereo) [Example 3, (1α,2α,3β,5β)-3-[2-Amino-6-(methylamino)-9H-purin-9-yl]-5-(hydroxymethyl)-1,2-cyclopentanediol] | 320 µg/mL (≈ 1090 µM) | 1.3 |  |  |  |  |  |  | 
Nc1nc(N)c2nnn([C@@H]3C[C@H](CO)[C@@H](O)[C@H]3O)c2n1 (relative stereo) [Example 6, (1α,2α,3β,5β)-3-(5,7-Diamino-3H-1,2,3-triazolo[4,5-d]pyrimidin-3-yl)-5-(hydroxymethyl)-1,2-cyclopentanediol] | 100 µg/mL (≈ 356 µM) | 1.4 |  |  |  | 0.6 |  |  | 
Nc1nc(Cl)c2nnn([C@@H]3C[C@H](CO)[C@@H](O)[C@H]3O)c2n1 (relative stereo) [Formula III, X = Cl, carbocyclic analog of 2-amino-6-chloro-8-azapurine ribofuranoside] | 81 µg/mL | 0.9 | 0.6 |  |  |  |  |  | 
Nc1nc2c(nnn2[C@@H]2C[C@H](CO)[C@@H](O)[C@H]2O)c(=O)[nH]1 (relative stereo) [Formula IV, Y = O, carbocyclic analog of 8-azaguanosine] |  |  |  |  | 58 µg/mL | 2.2 |  |  | 
Nc1ncnc2c1ncn2[C@@H]1O[C@H](CO)[C@@H](O)[C@@H]1O [Ara-A, reference compound] | 2.5 to 10 µg/mL (≈ 9.35 to 37.4 µM) | 2.0-2.2 |  |  |  |  |  |  | 
